Source: patent US20230201240A1, “TREATMENT OF ADVANCED METASTATIC CANCER” (Can-Fite Biopharma Ltd., priority 2021, published 2023)
“Also recorded” adds a separate entry of the source. Like-named read-outs stand apart in the source and are kept apart here.

Experiments:
[1] = tested on: advanced HCC and CPB cirrhosis; test: Phase II randomized, double-blind, placebo-controlled study of namodenoson in advanced HCC with CPB cirrhosis (NCT02128958); type: in vivo, human
From the text: The diagnosis of HCC in subjects without underlying cirrhosis at the time of diagnosis required cytology and/or histology; for subjects with underlying cirrhosis at the time of diagnosis, HCC diagnosis was established according to the American Association for the Study of Liver Diseases practice guidelines algorithm [Marrero J. A., et al., Hepatology. 2018; 68:723-750]. For subjects who had tolerated sorafenib, ≥3 weeks of prior treatment was required, terminating at ≥2 weeks before study entry. Inclusion criteria included: ECOG PS≤2; having CPB cirrhosis (i.e., CP score 7-9); aspartate aminotransferase (AST) and alanine aminotransferase (ALT) levels ≤5 times the upper limit of normal (ULN); total bilirubin, ≤3.0 mg/dL; serum albumin, ≥2.8 g/dL; prothrombin time (PT), ≤6 s longer than control; serum creatinine, ≤2.0 mg/dL; absolute neutrophil count, […]; and platelet count, […]. Exclusion criteria included: the presence of hepatic encephalopathy; and gastrointestinal hemorrhage requiring transfusion occurring within the past 4 weeks.
This was a multicenter, randomized, double-blind, placebo-controlled clinical trial (ClinicalTrials.gov identifier NCT02128958). The trial was conducted at 15 sites in Israel, Europe, and the United States. Subjects were enrolled by the participating centers and were randomly assigned 2:1, using a central randomization schedule generated by an independent biostatistician with no stratification prior to randomization. Patients were randomized to either namodenoson (Cl-IB-MECA) 25 mg or matching placebo, administered orally every 12 hours until discontinuation due to intolerance, withdrawal of consent, or death. Though treatment was administered in a continuous manner, the treatment period was divided into 4-week cycles for the purpose of data recording. No crossover was initially allowed; however, by protocol amendment, patients that continued with blinded treatment were offered namodenoson (25 mg twice daily) upon unblinding of the treatment assignments. All study site personnel were blinded to patients' treatment throughout the study period. The study was approved by all relevant national regulatory authorities and local Ethics Committees/Institutional Review Boards. The study was conducted in accordance with the Declaration of Helsinki, and written informed consent was obtained from all the patients.
The primary endpoint of the study was overall survival (OS). Secondary endpoints were progression-free survival (PFS), overall response rate (ORR), disease control rate (DCR), and safety. […] 2019, 70:1262-1277]. Disease response assessment was evaluated locally by 2 independent blinded radiologists using Response Evaluation Criteria in Solid Tumors (RECIST) version 1.1 [Eisenhauer E. A., et al. Eur. J. Cancer. 2009; 45:228-247]. Tumor status was assessed at baseline and every 8 weeks thereafter by computed tomography scan or magnetic resonance imaging. Safety was monitored through assessments of AEs using the US National Cancer Institute's Common Terminology Criteria for Adverse Events (CTCAE) v4.03. Changes from baseline in vital signs, clinical laboratory parameters, electrocardiograms, physical examinations, and ECOG PS were also assessed. AFP levels were assessed at baseline and every 4 weeks thereafter, as were laboratory parameters associated with hepatic dysfunction and cirrhosis, such as serum ALT, AST, bilirubin, and albumin levels, PT, and international normalized ratio. ALBI scores were calculated from the albumin and bilirubin levels, as previously described [Johnson P. J., et al. J. Clin. Oncol. 2015; 33:550-558].
Power calculation determined that 75 deaths, assuming a hazard ratio of 0.5, would provide 80% power for the log-rank test at a significance level of 0.05. Primary efficacy analyses were performed on the ITT population. Descriptive statistics were used to summarize patient/tumor characteristics and safety. […]

HCC = conditions: syngeneic orthotopic and xenograft models; cited from earlier work
[2] = tested on: advanced unresectable HCC; conditions: cited from earlier work
[3] = 9 patients with Child-Pugh Score 9
[4] = 34 namodenoson-treated patients with post-baseline assessment
[5] = n = 34 with at least 1 post-baseline assessment
[6] = patients with Child-Pugh score 7
[7] = patients with Child-Pugh score 8

**Q.** Which results are given for `CNC(=O)[C@H]1O[C@@H](n2cnc3c(NCc4cccc(I)c4)nc(Cl)nc32)[C@H](O)[C@@H]1O` [namodenoson, 2-chloro-N^6-(3-iodobenzyl)-adenosine-5′-N-methyluronamide]?
**A.** treatment-related deaths ([1]; 25 mg BID oral): No treatment-related deaths; median OS [1, 3]: 3.5 months; median PFS [1, 3]: 2.2 months; PR achieved, number of patients [1, 4]: 3 patients; PR achieved, share of patients [1, 4]: 9%; patients who experienced CR [1, 4]: one patient; OS HR vs placebo ([1]; Child-Pugh score 7, 95% CI 0.45-1.43, p=0.46): 0.81; PFS HR vs placebo ([1]; Child-Pugh score 7, 95% CI 0.51-1.55, p=0.67): 0.89; PFS HR vs placebo ([1]; Child-Pugh score 8, 95% CI 0.23-2.17, p=0.53): 0.71; OS HR vs placebo ([1]; Child-Pugh score 8, 95% CI 0.28-2.77, p=0.83): 0.88; survival of single patient in Open Label Extension ([1]; advanced metastatic HCC, CPB7, 25 mg orally twice a day): survived five years; response of single patient in Open Label Extension ([1]; advanced metastatic HCC, CPB7, 25 mg orally twice a day for 5 years): Complete Response (CR); also recorded: complete remission of the cancer; mean serum albumin levels and albumin-bilirubin (ALBI) scores ([1]; in vivo): did not change significantly; withdrawals and dose reductions attributable to namodenoson ([1]; in vivo, po): no patients withdrew from the study and no dose reductions were attributable to namodenoson; Best observed response (RECIST 1.1): CR [1, 5]: 1 (2.94%) n (%); Best observed response (RECIST 1.1): PD [1, 5]: 14 (41.2%) n (%); Best observed response (RECIST 1.1): PR [1, 5]: 3 (8.8%) n (%); Best observed response (RECIST 1.1): SD [1, 5]: 17 (50.0%) n (%); 12-month OS rate ([1]; p=0.028 vs placebo, FIG. 1: patients with Child-Pugh Score 7, 25 mg BID): 44%; median OS [1, 6]: 6.9 months; median PFS [1, 6]: 3.5 months; OS [1, 7]: 3.3 months; PFS [1, 7]: 2.1 months; clinical benefits of treatment (scan of chest, abdomen, pelvis) ([1]; single patient, advanced metastatic HCC, CPB7, 25 mg orally twice a day): disappearance of ascites, normal liver function, and the disappearance of peritoneal carcinomatosis; progression-free survival (PFS) superiority over placebo ([1]; whole study population): no superiority; median OS ([1]; whole study population, 25 mg BID oral): 4.1 months; OS hazard ratio [HR] vs placebo ([1]; whole study population, 95% CI 0.49-1.38, p=0.46): 0.82; effect towards HCC (HCC): induces an apoptotic effect; Median overall survival (OS) ([2]; CPB patients (28%)): 8.1 months; safety and tolerability ([2]; in vivo): safe and well-tolerated; Median overall survival (OS) ([2]; whole study population, 67% failed prior sorafenib): 7.8 months
